Data as given in paper PMC5587768, “Ligand activation induces different conformational changes in CXCR3 receptor isoforms as evidenced by plasmon waveguide resonance (PWR)” (Scientific Reports, 2017).
“And” between values parts separate entries of the source, which are not always exact repeats. Equal values may be shown once. One block for each compound: values may come before it.

Key:
CXCR3-A [1] = target: T1, CXCR3-A (Homo sapiens, UniProt P49682); experiment: Plasmon waveguide resonance (PWR) on HEK-CXCR3-A cell membrane fragments; type: binding; conditions: for Kd: HEK-CXCR3-A cell fragments, incremental ligand addition, hyperbolic fit; for Difference in KD between CXCR3-A and CXCR3-B (higher affinity for CXCR3-A): KD CXCR3-B versus KD CXCR3-A
T1 construct: The coding regions of human CXCR3-A or CXCR3-B cDNA; expressed in transfected cells; host or cells: HEK-293, stably transfected (HEK-CXCR3-A)
T1 sequence (P49682 1-368): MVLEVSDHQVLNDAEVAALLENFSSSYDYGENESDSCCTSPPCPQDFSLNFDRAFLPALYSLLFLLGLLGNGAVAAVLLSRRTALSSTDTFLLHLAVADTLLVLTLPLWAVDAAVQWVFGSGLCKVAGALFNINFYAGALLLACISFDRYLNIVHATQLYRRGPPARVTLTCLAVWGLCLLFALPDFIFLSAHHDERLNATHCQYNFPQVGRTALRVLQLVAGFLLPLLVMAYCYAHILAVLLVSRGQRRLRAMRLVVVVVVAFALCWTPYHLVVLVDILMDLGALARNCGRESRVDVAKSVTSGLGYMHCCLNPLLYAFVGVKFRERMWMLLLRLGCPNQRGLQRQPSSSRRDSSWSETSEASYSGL
Text: (§1) Ligand-mediated activation of CXCR3 was studied by PWR and flow cytometry measuring calcium flux. The former technique allows to determine the affinity, ligand-binding kinetics and anisotropy of the events occurring at the sensor surface. This technique gives the possibility of following resonance with two types of polarizations, p- and s-polarizations. PWR can be applied both to artificial lipid model systems with reconstituted receptors or to cell fragments[27]–[34]. In the present study, cell membrane fragments from cells expressing the CXCR3-A and CXCR3-B receptors were immobilized on the PWR sensor which is composed of a prism coated with a silver layer and overcoated with a silica layer. The prism is pre-treated with polylysine to promote cell adhesion by electrostatic interactions between the negative charges provided by the cell surface glycosaminoglycans (GAGs) and the positive charges of polylysine. The quality of HEK-CTRL, HEK-CXCR3-A and HEK-CXCR3-B membrane fragments was verified by confocal microscopy by visualizing the GFP-tagged receptors using glass slides of the same material (silica) than the outer layer of the sensor surface (Fig. 1A). The presence of fluorescent membrane fragments on the glass slide of few μm were evidenced in agreement with reported literature.
(§2) In contrast, membrane fragments of cells expressing either CXCR3-A or CXCR3-B responded to ligand stimulation in a saturable manner (Fig. 2; Fig. S3). […] PWR is sensitive to both, mass and structural changes. Inasmuch as the ligand is far too small to contribute to a mass change by itself, the PWR spectral changes observed correspond to ligand-induced receptor conformational changes (upon formation of the R/L complex). From the saturable and hyperbolic binding response, a dissociation constant was determined. The cell fragments are quite stable after sensor immobilization as no alterations in the spectra were observed after repetitive and extensive washing with buffer. Furthermore, lipids and receptors are oriented with their long axis along the p-polarization axis as shown by the anisotropic response. Thus, spectral modifications observed in p-polarization reflect changes along the receptor main axis, while modifications in s-polarization reflect changes along the receptor minor axis (Fig. S2). In HEK-CXCR3-A cells, agonist binding led to an increase in the resonance minimum position for both p- and s-polarization. A positive shift in the resonance angle is correlated with an increase in the refractive index due to a mass increase in the system. Since the ligand, by itself, is too small to be able to produce such spectral changes, the response can only be attributed to conformational change in the receptor which is reflected by an increase in mass density. […] The negative shift, while of considerably smaller magnitude, results from a slight decrease in the mass density in the system and can be attributed to a conformational change leading to a looser and less ordered arrangement of the TM helices accompanied by a slight decrease in length. Thus, agonist-mediated CXCR3 activation leads to opposite conformational changes depending on the CXCR3 isoform.
(§3) PWR measurements were performed in a homemade instrument equiped with a He-Ne laser, with a fixed wavelenght in the visible region (λ = 632 nm; Melles Griot), a rotating table allowing the incident angle to be changed by steps ≤1 mdeg (thus resolution being on that order; Newport) and a photodiode detector (Hamamatsu) to measure the reflected light as a function of the incident angle. The polarization angle of the incident beam is placed at 45° allowing both p- and s-polarized spectra to be obtained within the same angular scan. The sensor consisted in a BK-7 prism coated with silver and silica (to support waveguide modes)[36]. All measurements were performed at 22 °C in a temperature controlled room. More details about this technology can be found. […]

CXCR3-A [2] = target: T1, CXCR3-A; experiment: Calcium flux by flow cytometry in HEK-CXCR3-A cells; type: cell-based
Method: (§4) Human Embryonic Kidney (HEK-293) cell lines, were regularly tested for contamination and were all mycoplasma-free. Cells were cultured in Dulbecco’s Modified Eagle’s medium (DMEM, Thermo Fisher Scientific) supplemented with 10% Fetal Bovine Serum (FBS), 5% antibiotics (Penicillin and […]) and 5% L-glutamine. All cells were grown at 37 °C, 5% CO2 and split at 70–90% of confluence with 0.25% Trypsin. Cell transfection was performed using Effecten kit (Qiagen) according to the manufacter’s instruction. HEK-CTRL (HEK-293 stably transfected with empty pEGFPN2 vectors) HEK-CXCR3-A cells and HEK-CXCR3-B (HEK-293 stably transfected with pEGFPN2 + CXCR3-A or pEGFPN2 + CXCR3-B vectors, respectivly) were grown in the presence of Zeocin (200 µg/ml). For inhibition experiments, cells were pretreated 1 h with the CXCR3 antagonist SCH546738 at dose-dependant concentration. SCH546738 is a small molecular lipophilic molecule, with the chemical formula: C23H31Cl2N7O. […] For this reason a concentration range from 0.5 to 2.2 nM has been used.
(§5) Intracellular calcium concentration was measured using Calcium Assay Kit (BD 640176) according to the manufacter’s procedure on an AccuriC6 flow cytometer equipped with BD AccuriC6 software (BD, San Jose, CA). Cells were placed in suspension and 1X Dye loading solution was added for 20 min at 37 °C. Calcium concentration was then recorded for 5 min on the AccuriC6 flow cytometer. CXCR3 agonist stimulation was performed after 2 min of recording and intracellular calcium increase was visualized. Calcium concentration after stimulation was normalized by calcium concentration before stimulation. Cells without 1X dye loading solution were used as a negative control in order to quantify the background level.

CXCR3 = conditions: cited from earlier work
HEK-CTRL cell fragments = experiment: Plasmon waveguide resonance (PWR) on HEK-CTRL cell fragments (empty GFP vector control); type: binding, human
Text: as §2
as §3, with “found. The protocol for adhesion of cell fragments on silica (glass slides or PWR sensor) was adapted from reported work from Vogel and collaborators.” for “found.”

CXCR3-B [3] = target: T2, CXCR3-B (Homo sapiens, UniProt P49682); experiment: Plasmon waveguide resonance (PWR) on HEK-CXCR3-B cell membrane fragments; type: binding; conditions: for Kd: HEK-CXCR3-B cell fragments, incremental ligand addition, hyperbolic fit
T2 construct: The coding regions of human CXCR3-A or CXCR3-B cDNA; expressed in transfected cells; host or cells: HEK-293, stably transfected (HEK-CXCR3-B)
T2 sequence (P49682 1-415 isoform P49682-2): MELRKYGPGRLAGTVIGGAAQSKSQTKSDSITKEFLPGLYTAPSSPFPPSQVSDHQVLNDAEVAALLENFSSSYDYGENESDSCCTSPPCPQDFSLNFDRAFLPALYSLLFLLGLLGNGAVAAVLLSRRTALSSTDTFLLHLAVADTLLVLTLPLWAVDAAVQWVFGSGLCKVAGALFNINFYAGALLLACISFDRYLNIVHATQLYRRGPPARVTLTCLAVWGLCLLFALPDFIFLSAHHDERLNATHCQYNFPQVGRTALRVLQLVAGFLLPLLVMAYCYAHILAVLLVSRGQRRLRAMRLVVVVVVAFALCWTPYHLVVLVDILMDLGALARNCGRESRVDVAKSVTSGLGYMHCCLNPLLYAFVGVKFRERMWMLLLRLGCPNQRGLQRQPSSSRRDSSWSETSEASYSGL
Text: as §1, §2, §3

CXCR3-B [4] = target: T2, CXCR3-B; experiment: Calcium flux by flow cytometry in HEK-CXCR3-B cells; type: cell-based
Method: as §4, §5

Shift in resonance minimum position, P-pol (CXCR3-A [1]; HEK-CXCR3-A, p-polarization, incremental addition to saturation): 16 +/- 12 mdeg | Shift in resonance minimum position, S-pol (CXCR3-A [1]; HEK-CXCR3-A, s-polarization, incremental addition to saturation): 4 +/- 1 mdeg | Kd (CXCR3-A [1]; PWR): 40 nM | Difference in KD between CXCR3-A and CXCR3-B (higher affinity for CXCR3-A) (CXCR3-A [1]; PWR): 10 fold | Intracellular calcium flux after agonist stimulation (CXCR3-A [2]; HEK-CXCR3-A cells): increase intracellular calcium flux | Shift in resonance minimum position, P-pol (CXCR3-B [3]; HEK-CXCR3-B, p-polarization, incremental addition to saturation): -5 +/- 1 mdeg | Shift in resonance minimum position, S-pol (CXCR3-B [3]; HEK-CXCR3-B, s-polarization, incremental addition to saturation): -4 +/- 1 mdeg | Kd (CXCR3-B [3]; PWR): 450 nM | Intracellular calcium flux after agonist stimulation (CXCR3-B [4]; HEK-CXCR3-B cells): increase intracellular calcium flux
Structure (SMILES): NC(N)=NCCC[C@H](NC(=O)[C@@H]1Cc2ccccc2CN1C(=O)CCC(=O)c1ccccc1)C(=O)NCC1CCCCC1 [PS372424]
IC50 (CXCR3; isoforms not distinguished, read-out: IC50 reported for binding to CXCR3): 42 nM | Shift in resonance minimum position, P-pol (HEK-CTRL cell fragments; HEK-CTRL, p-polarization): 0 +/- 1 mdeg | Shift in resonance minimum position, S-pol (HEK-CTRL cell fragments; HEK-CTRL, s-polarization): 0 +/- 1 mdeg | KD (HEK-CTRL cell fragments; PWR, HEK-CTRL cell fragments): No binding

Structure (SMILES): CC[C@H]1CN(c2nc(N)c(C(N)=O)nc2Cl)CCN1C1CCN(Cc2ccc(Cl)cc2)CC1 [SCH546738]
Kd (CXCR3-A [1]; PWR): 0.5 nM | Agonist binding after SCH546738 at 1 nM (CXCR3-A [1]; PWR, HEK-CXCR3-A, SCH546738 1 nM): totally abrogated | Agonist binding after SCH546738 at saturating concentration (CXCR3-A [1]; PWR, HEK-CXCR3-A, SCH546738 2.2 nM, 1 h): completely abolished | Difference in KD between CXCR3-A and CXCR3-B (higher affinity for CXCR3-A) (CXCR3-A [1]; PWR): 3 fold | Receptor activation by agonist (calcium flux) after SCH546738 pretreatment (CXCR3-A [2]; HEK-CXCR3-A cells pretreated with SCH546738): no longer activated | Inhibition of CXCR3-A activation (calcium flux) (CXCR3-A [2]; at 1 nM): more than 70% | Kd (CXCR3; other reports and methods, read-out: Affinity to CXCR3 reported): 0.8 to 2.2 nM and 0.4 to 2.2 nM | PWR response of control cell fragments (non-specific binding) (HEK-CTRL cell fragments; HEK-CTRL cell fragments): did not respond | Kd (CXCR3-B [3]; PWR): 1.5 nM | Agonist binding after SCH546738 at 1 nM (CXCR3-B [3]; PWR, HEK-CXCR3-B, SCH546738 1 nM): binding was still observed | Agonist binding after SCH546738 at saturating concentration (CXCR3-B [3]; PWR, HEK-CXCR3-B, SCH546738 2.2 nM, 1 h): completely abolished | Receptor activation by agonist (calcium flux) after SCH546738 pretreatment (CXCR3-B [4]; HEK-CXCR3-B cells pretreated with SCH546738): no longer activated | Inhibition of CXCR3-B activation (calcium flux) (CXCR3-B [4]; at 1 nM): 25%
